Results published in US20170334899A1, “AMINO-SUBSTITUTED ISOTHIAZOLES” (Bayer Pharma Aktiengesellschaft, priority 2014, published 2017).

Tested on: human cervical tumor cell line HeLa (ATCC CCL-2)
Assay: SAC-Formation - Nocodazole-Induced Assay
Format: cell-based
Conditions: Homo sapiens, HeLa, 24 h, HeLa cells, nocodazole 0.1 μg/ml together with test compound, decrease of mitotic cells (phospho-histone H3 Ser10)
Method in brief: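 Loss of phospho-histone H3 Ser10-positive cells, counted against Hoechst-stained nuclei by high-content imaging, marked mitotic breakthrough. Compounds (0.005–20 μM, 0.5% DMSO) were co-dosed with 0.1 μg/ml nocodazole onto HeLa cells for 24 h at 37 °C. Curves were fitted with a four-parameter Hill equation.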

| Compound | IC50 [nM] |
| --- | --- |
| Cc1nsc(Nc2cnc(C(F)(F)F)cn2)c1C(=O)Nc1ccc(OCCCNCC(F)(F)F)nc1 [Example 292, 3-methyl-N-(6-{3-[(2,2,2-trifluoroethyl)amino]propoxy}pyridin-3-yl)-5-{[5-(trifluoromethyl)pyrazin-2-yl]amino}-1,2-thiazole-4-carboxamide] | 980 |
| COC(=O)CCCc1ccc(NC(=O)c2c(C)nsc2Nc2cc(C#N)ccn2)cc1 [Example 256, methyl 4-{4-[({5-[(4-cyanopyridin-2-yl)amino]-3-methyl-1,2-thiazol-4-yl}carbonyl)amino]phenyl}butanoate] | 1600 |
| Cc1nsc(Nc2cnc(C(F)(F)F)cn2)c1C(=O)Nc1cccc(NC(=O)OC(C)(C)C)c1 [Example 284, 3-tert-butyl (3-{[(3-methyl-5-{[5-(trifluoromethyl)pyrazin-2-yl]amino}-1,2-thiazol-4-yl)carbonyl]amino}phenyl)carbamate] | 76 |
| Cc1nsc(Nc2cc(C#N)ccn2)c1C(=O)Nc1ccc(OC2CCN(C(=O)OC(C)(C)C)CC2)nc1 [Example 23, tert-Butyl 4-({5-[({5-[(4-cyanopyridin-2-yl)amino]-3-methyl-1,2-thiazol-4-yl}-carbonyl)amino]pyridin-2-yl}oxy)piperidine-1-carboxylate] | 49 |
| Cc1nsc(Nc2cc(C#N)ccn2)c1C(=O)Nc1cccc(C(=O)NC(C)C)c1 [Example 254, 5-[(4-cyanopyridin-2-yl)amino]-N-[3-(isopropylcarbamoyl)phenyl]-3-methyl-1,2-thiazole-4-carboxamide] | 2800 |
| Cc1nsc(Nc2cnc3ccccc3n2)c1C(=O)Nc1cccc(NS(=O)(=O)C2CCN(CC(F)F)CC2)c1 [Example 282, N-[3-({[1-(2,2-difluoroethyl)piperidin-4-yl]sulfonyl}amino)phenyl]-3-methyl-5-(quinoxalin-2-ylamino)-1,2-thiazole-4-carboxamide] | 6700 |
| CCN1CCN(C(=O)c2ccc(NC(=O)c3c(C)nsc3Nc3cncc(C(F)(F)F)n3)cc2)CC1 [Example 275, N-{4-[(4-ethylpiperazin-1-yl)carbonyl]phenyl}-3-methyl-5-{[6-(trifluoromethyl)pyrazin-2-yl]amino}-1,2-thiazole-4-carboxamide] | 840 |
| Cc1nsc(Nc2cncc(C(F)(F)F)n2)c1C(=O)Nc1ccc(OCCO)nc1 [Example 276, N-[6-(2-hydroxyethoxy)pyridin-3-yl]-3-methyl-5-{[6-(trifluoromethyl)pyrazin-2-yl]amino}-1,2-thiazole-4-carboxamide] | 350 |
| Cc1nsc(Nc2cnc3ccccc3n2)c1C(=O)Nc1cccc(NS(=O)(=O)C2CN(CC(F)(F)F)C2)c1 [Example 285, 3-methyl-5-(quinoxalin-2-ylamino)-N-[3-({[1-(2,2,2-trifluoroethyl)azetidin-3-yl]sulfonyl}amino)phenyl]-1,2-thiazole-4-carboxamide] | 2200 |
| Cc1nsc(Nc2cncc(C(F)(F)F)n2)c1C(=O)Nc1ccc(OCCCO)nc1 [Example 278, N-[6-(3-hydroxypropoxy)pyridin-3-yl]-3-methyl-5-{[6-(trifluoromethyl)pyrazin-2-yl]amino}-1,2-thiazole-4-carboxamide] | 190 |
| CCN1CCC(Oc2ccc(NC(=O)c3c(C)nsc3Nc3cc(C#N)ccn3)cn2)CC1 [Example 26, 5-[(4-Cyanopyridin-2-yl)amino]-N-{6-[(1-ethylpiperidin-4-yl)oxy]pyridin-3-yl}-3-methyl-1,2-thiazole-4-carboxamide] | 2400 |
| Cc1nsc(Nc2cnc3ccccc3n2)c1C(=O)Nc1cccc(NS(=O)(=O)C2CCN(C(=O)OC(C)(C)C)CC2)c1 [Example 258, tert-butyl 4-{[3-({[3-methyl-5-(quinoxalin-2-ylamino)-1,2-thiazol-4-yl]carbonyl}amino)phenyl]sulfamoyl} piperidine-1-carboxylate] | 600 |
| Cc1nsc(Nc2cnc3ccccc3n2)c1C(=O)Nc1cccc(NS(=O)(=O)C2CCCN(C(=O)OCc3ccccc3)C2)c1 (centres unmarked) [Example 291, benzyl 3-{[3-({[3-methyl-5-(quinoxalin-2-ylamino)-1,2-thiazol-4-yl]carbonyl}amino)phenyl]sulfamoyl} piperidine-1-carboxylate] | 1400 |
| Cc1nsc(Nc2cnc(C(F)(F)F)cn2)c1C(=O)Nc1ccc(OCCNCCF)nc1 [Example 321, N-(6-{2-[(2-fluoroethyl)amino]ethoxy}pyridin-3-yl)-3-methyl-5-{[5-(trifluoromethyl)pyrazin-2-yl]amino}-1,2-thiazole-4-carboxamide] | 140 |

Other lines, results leading:

| IC50 [nM] | Compound |
| --- | --- |
| 53 | Cc1nsc(Nc2cnc(C(F)(F)F)cn2)c1C(=O)Nc1ccc(F)c(OC2CCN(CC(F)F)C2)c1 (centres unmarked) [Example 314, N-(3-{[1-(2,2-difluoroethyl)pyrrolidin-3-yl]oxy}-4-fluorophenyl)-3-methyl-5-{[5-(trifluoromethyl)pyrazin-2-yl]amino}-1,2-thiazole-4-carboxamide] |
| 1100 | CCN1CCN(C(=O)c2ccc(NC(=O)c3c(C)nsc3Nc3cnc(C(F)(F)F)cn3)cc2)CC1 [Example 261, N-{4-[(4-ethylpiperazin-1-yl)carbonyl]phenyl}-3-methyl-5-{[5-(trifluoromethyl)pyrazin-2-yl]amino}-1,2-thiazole-4-carboxamide] |
| 510 | Cc1nsc(Nc2cnc(C(F)(F)F)cn2)c1C(=O)Nc1ccc(OCCNCC(F)F)nc1 [Example 305, N-(6-{2-[(2,2-difluoroethyl)amino]ethoxy}pyridin-3-yl)-3-methyl-5-{[5-(trifluoromethyl)pyrazin-2-yl]amino}-1,2-thiazole-4-carboxamide] |
| 920 | Cc1nsc(Nc2cc(C#N)ccn2)c1C(=O)Nc1ccc(OC2CCN(CC(F)F)CC2)nc1 [Example 263, 5-[(4-cyanopyridin-2-yl)amino]-N-(6-{[1-(2,2-difluoroethyl)piperidin-4-yl]oxy}pyridin-3-yl)-3-methyl-1,2-thiazole-4-carboxamide] |
| 87 | Cc1nsc(Nc2cnc(C(F)(F)F)cn2)c1C(=O)Nc1ccc(C(=O)N2CCN(CC(F)(F)F)CC2)cc1 [Example 260, 3-methyl-N-(4-{[4-(2,2,2-trifluoroethyl)piperazin-1-yl]carbonyl}phenyl)-5-{[5-(trifluoromethyl)pyrazin-2-yl]amino}-1,2-thiazole-4-carboxamide] |
| 80 | Cc1nsc(Nc2cnc(C(F)(F)F)cn2)c1C(=O)Nc1ccc(OC2CCN(CCC(F)(F)F)C2)nc1 (centres unmarked) [Example 298, 3-methyl-5-{[5-(trifluoromethyl)pyrazin-2-yl]amino}-N-(6-{[1-(3,3,3-trifluoropropyl)pyrrolidin-3-yl]oxy}pyridin-3-yl)-1,2-thiazole-4-carboxamide] |
| 440 | Cc1nsc(Nc2cnc(C(F)(F)F)cn2)c1C(=O)Nc1ccc(N(C)C)c(OCCCN(C)CCC(F)(F)F)c1 [Example 300, N-[4-(dimethylamino)-3-{3-[methyl(3,3,3-trifluoropropyl)amino]propoxy}phenyl]-3-methyl-5-{[5-(trifluoromethyl)pyrazin-2-yl]amino}-1,2-thiazole-4-carboxamide] |
| 24 | Cc1nsc(Nc2cnc(C(F)(F)F)cn2)c1C(=O)Nc1ccc(F)c(OCCCNCC(F)(F)F)c1 [Example 306, N-(4-fluoro-3-{3-[(2,2,2-trifluoroethyl)amino]propoxy}phenyl)-3-methyl-5-{[5-(trifluoromethyl)pyrazin-2-yl]amino}-1,2-thiazole-4-carboxamide] |
| 80 | Cc1nsc(Nc2cnc(C(F)(F)F)cn2)c1C(=O)Nc1ccc(OC2CCN(CC(F)(F)F)C2)nc1 (centres unmarked) [Example 297, 3-methyl-N-(6-{[1-(2,2,2-trifluoroethyl)pyrrolidin-3-yl]oxy}pyridin-3-yl)-5-{[5-(trifluoromethyl)pyrazin-2-yl]amino}-1,2-thiazole-4-carboxamide] |
| 950 | Cc1nsc(Nc2cnc(C(F)(F)F)cn2)c1C(=O)Nc1ccc(C(=O)NC2CN(CC(F)(F)F)C2)cc1 [Example 270, 3-methyl-N-(4-{[1-(2,2,2-trifluoroethyl)azetidin-3-yl]carbamoyl}phenyl)-5-{[5-(trifluoromethyl)pyrazin-2-yl]amino}-1,2-thiazole-4-carboxamide] |
| 400 | Cc1nsc(Nc2cnc(C(F)(F)F)cn2)c1C(=O)Nc1ccc(C(=O)NC2CCN(CC(F)F)CC2)cc1 [Example 259, N-(4-{[1-(2,2-difluoroethyl)piperidin-4-yl]carbamoyl}phenyl)-3-methyl-5-{[5-(trifluoromethyl)pyrazin-2-yl]amino}-1,2-thiazole-4-carboxamide] |
| 69 | Cc1nsc(Nc2cnc(C(F)(F)F)cn2)c1C(=O)Nc1ccc(OCCNCC(F)(F)F)nc1 [Example 322, 3-methyl-N-(6-{2-[(2,2,2-trifluoroethyl)amino]ethoxy}pyridin-3-yl)-5-{[5-(trifluoromethyl)pyrazin-2-yl]amino}-1,2-thiazole-4-carboxamide] |
| 4.3 | Cc1nsc(Nc2cnc(C(F)(F)F)cn2)c1C(=O)Nc1ccc(F)c(OC2CCN(CC(F)(F)F)C2)c1 (centres unmarked) [Example 315, N-(4-fluoro-3-{[1-(2,2,2-trifluoroethyl)pyrrolidin-3-yl]oxy}phenyl)-3-methyl-5-{[5-(trifluoromethyl)pyrazin-2-yl]amino}-1,2-thiazole-4-carboxamide] |
| 210 | Cc1nsc(Nc2cnc(C(F)(F)F)cn2)c1C(=O)Nc1ccc(N(C)C)c(OCCCN(C)CC(F)(F)F)c1 [Example 299, N-[4-(dimethylamino)-3-{3-[methyl(2,2,2-trifluoroethyl)amino]propoxy}phenyl]-3-methyl-5-{[5-(trifluoromethyl)pyrazin-2-yl]amino}-1,2-thiazole-4-carboxamide] |
| 70 | Cc1nsc(Nc2cnc(C(F)(F)F)cn2)c1C(=O)Nc1ccc(F)c(OCCCN(C)CC(F)(F)F)c1 [Example 302, N-(4-fluoro-3-{3-[methyl(2,2,2-trifluoroethyl)amino]propoxy}phenyl)-3-methyl-5-{[5-(trifluoromethyl)pyrazin-2-yl]amino}-1,2-thiazole-4-carboxamide] |
